Results from US20130337564A1, “Treatment of Pluripotent Cells” (Janssen Biotech, Inc., priority 2012, published 2013).

Columns and labels:
[1] = tested on: human embryonic stem cell line H1; test: Dose titration secondary assay: cell number, H1; format: cell-based; conditions: positive control (Wnt3a/Activin A) normalized to 1.000; for activity at 0.156 µM / activity at 0.313 µM / activity at 0.625 µM / activity at 1.25 µM / activity at 2.5 µM / activity at 5 µM / activity at 10 µM: Homo sapiens, Embryonic stem cell
Method: (§1) It was important to confirm the activity of hits identified from primary screening and further analyze the range of activity by dose titration. New samples of a selective subset of primary screening hits were obtained as dry powders, solubilized to make fresh stock reagents, and diluted into secondary confirmation assays to evaluate effects on human embryonic stem cells.
(§2) Culture of two human embryonic stem cells (H1 and H9) was conducted as described in Example 1. Colonies of cells were maintained in an undifferentiated, pluripotent state on Matrigel™ ([…]) coated polystyrene plastic, using a 1:30 dilution of Matrigel™ in DMEM:F12 to coat the surface. Cells were split by enzymatic passage every four days on average. Passage was performed by exposing cell monolayers to a solution of collagenase (1 mg/ml; Sigma-Aldrich) for 10 to 60 minutes at 37° C. followed by gentle scraping with a pipette tip to recover cell clusters. Clusters were allowed to sediment by gravity, then washed to remove residual collagenase. Cell clusters were split at a 1:3 ratio for maintenance culture or a 1:1 ratio for subsequent assay. The human embryonic stem cell lines were maintained at less than passage 50 and routinely evaluated for normal karyotypic phenotype and absence of mycoplasma contamination.
(§3) Cell clusters of the H1 or H9 human embryonic stem cell lines used in the assay were evenly resuspended in culture medium and plated onto Matrigel™-coated 96-well Packard VIEWPLATES (PerkinElmer) in volumes of 100 μl/well. MEF conditioned medium supplemented with 8 ng/ml bFGF was used for initial plating and expansion. Daily feeding was conducted by aspirating spent culture medium from each well and replacing with an equal volume of fresh medium. Cultures were allowed to expand one to three days after plating prior to initiating assay. Plates were maintained at 37° C., 5% CO2 in a humidified box for the duration of assay.
(§4) A subset of hits resulting from primary screening was used for follow-up study and subsequent secondary assays. Twenty compounds available as dry powders were solubilized as 10 mM stocks in DMSO and stored dessicated at […] until use Immediately prior to assay, compound stocks were diluted 1:1000 to make 10 μM test compound in DMEM:F12 base medium (Invitrogen) supplemented with 0.5% FCS (HyClone) and 100 ng/ml Activin A (R&D Biosystems). This was further diluted two-fold in series to make a seven point dilution curve for each compound, also in DMEM:F12 base medium with 0.5% FCS and 100 ng/ml Activin A.
(§5) Assay was initiated by aspirating culture medium from cell monolayers in each well followed by three washes in PBS to remove residual growth factors and serum. Test volumes of 100 μl per well were added back containing medium with 0.5% FCS and different concentrations of inhibitor compounds with 100 ng/ml Activin A, without Wnt3a. Positive control wells contained the same base medium with 0.5% FCS and with 20 ng/ml Wnt3a (R&D Biosystems) in the absence of test compound. Negative control wells contained the same base medium with 0.5% FCS, in the absence of Activin A, Wnt3a, or test compound. Assay wells were aspirated and fed again with identical concentrations of test compound or control solutions on day 2 of assay. On days 3 and 4, all assay wells were aspirated and fed with DMEM:F12 supplemented with 2% FCS and 100 ng/ml Activin A in the absence of both test compound or Wnt3a. Parallel negative control wells were maintained on days 3 and 4 in DMEM:F12 base medium with 2% FCS.
(§6) At the end of culture, cells in 96-well plates were washed twice with PBS then fixed with 4% paraformaldehyde at room temperature for 20 minutes, washed three times more with PBS, and then permeabilized with 0.5% Triton X-100 for 20 minutes at room temperature. After fixing and permeabilizing, cells were washed again three times with PBS and then blocked with 4% chicken serum (Invitrogen) in PBS for 30 minutes at room temperature. […]

[2] = tested on: human embryonic stem cell line H9; test: Dose titration secondary assay: cell number, H9; format: cell-based
Method: as §1, §2, §3, §4, §5, §6

[3] = MTS viability (toxicity) assay of cells expressing pluripotency markers; format: cell-based, human; conditions: human, MTS on day 4, relative to Activin A + Wnt3a positive control, read-out: % Control (percentage viability of control); for viability at 4 days, 2.5 μM: cmpd conc 2.5 μM; for viability at 4 days, 5 μM: cmpd conc 5 μM; for viability at 4 days, 10 μM: cmpd conc 10 μM
Outline: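 A GSK-3B inhibitor library was screened for toxicity to pluripotency-marker-expressing cells. Compound was given in DMEM:F12 with 0.5% FCS and 100 ng/ml Activin A for two days, then replaced by medium with 2% FCS and Activin A. On day 4, MTS absorbance at 490 nm gave viability as percent of Activin A plus Wnt3a control wells.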

CCN1CCOCCOCCn2cc(c3ccccc32)C2=C(C(=O)NC2=O)c2cn(c3ccccc23)CC1 [Compound 103, 14-Ethyl-6,7,9,10,13,14,15,16-octahydro-12H,23H-5,26:17,22-di(metheno)dibenzo[k,q]pyrrolo[3,4-n][1,4,7,10,19]dioxatriacyclohenicosine-23,25(24H)-dione] showed a Cell number ([1]; Conc 0.156 μM) of 1.027, a Cell number ([1]; Conc 0.313 μM) of 1.028 and a Cell number ([1]; Conc 0.625 μM) of 0.921. For the same compound, the Cell number ([1]; Conc 1.25 μM) was 0.897, the Cell number ([1]; Conc 2.5 μM) was 0.566 and the Cell number ([1]; Conc 5 μM) was 0.034. The Cell number ([1]; Conc 10 μM) was 0.001, the Cell number ([2]; 0.156 μM compound) was 0.458 and the Cell number ([2]; 0.313 μM compound) was 0.686. For the same compound, the Cell number ([2]; 0.625 μM compound) was 0.927, the Cell number ([2]; 1.25 μM compound) was 1.011 and the Cell number ([2]; 2.5 μM compound) was 0.681. It also gave a Cell number ([2]; 5 μM compound) of 0.023 and a Cell number ([2]; 10 μM compound) of 0.001.

In the case of CN1CCN(C)CCn2cc(c3ccccc32)C2=C(C(=O)NC2=O)c2cn(c3ccccc23)CC1 [Compound 111, 8,11-Dimethyl-6,7,8,9,10,11,12,13-octahydro-20H-5,23:14,19-di(metheno)dibenzo[k,q]pyrrolo[3,4-n][1,4,7,10]tetraazacyclooctadecine-20,22(21H)-dione], the Cell number ([1]; Conc 0.156 μM) is reported as 0.659, the Cell number ([1]; Conc 0.313 μM) is reported as 0.785 and the Cell number ([1]; Conc 0.625 μM) is reported as 0.801. For the same compound, the Cell number ([1]; Conc 1.25 μM) was 0.914, the Cell number ([1]; Conc 2.5 μM) was 1.031 and the Cell number ([1]; Conc 5 μM) was 1.128. It also gave a Cell number ([1]; Conc 10 μM) of 0.412, a Cell number ([2]; 0.156 μM compound) of 0.072 and a Cell number ([2]; 0.313 μM compound) of 0.100. For the same compound, the Cell number ([2]; 0.625 μM compound) was 0.371, the Cell number ([2]; 1.25 μM compound) was 0.442 and the Cell number ([2]; 2.5 μM compound) was 0.600. It also gave a Cell number ([2]; 5 μM compound) of 0.793 and a Cell number ([2]; 10 μM compound) of 1.117.

With CN1CCOCCOCCN(C)CCn2cc(c3ccccc32)C2=C(C(=O)NC2=O)c2cn(c3ccccc23)CC1 [Compound 112, 12,21-Dimethyl-11,12,13,14,16,17,20,21,22,23-decahydro-1H,10H,19H-9,4:24,29-di(metheno)dibenzo[k,q]pyrrolo[3,4-n][1,4,7,10,19,22]dioxatetraazacyclotetracosine-1,3(2H)-dione] the Cell number ([1]; Conc 0.156 μM) was 0.912, the Cell number ([1]; Conc 0.313 μM) was 0.959 and the Cell number ([1]; Conc 0.625 μM) was 1.111. The Cell number ([1]; Conc 1.25 μM) was 1.200, the Cell number ([1]; Conc 2.5 μM) was 1.005 and the Cell number ([1]; Conc 5 μM) was 0.908. For the same compound, the Cell number ([1]; Conc 10 μM) was 0.996, the Cell number ([2]; 0.156 μM compound) was 0.276 and the Cell number ([2]; 0.313 μM compound) was 0.437. It also gave a Cell number ([2]; 0.625 μM compound) of 0.686, a Cell number ([2]; 1.25 μM compound) of 1.039 and a Cell number ([2]; 2.5 μM compound) of 1.197. The Cell number ([2]; 5 μM compound) was 1.281 and the Cell number ([2]; 10 μM compound) was 1.022.

O=C1NC(=O)C2=C1c1cn(c3ccccc13)CCOCCOCCN(Cc1cccs1)CCn1cc2c2ccccc21 [Compound 133, 14-(2-Thienylmethyl)-6,7,9,10,13,14,15,16-octahydro-12H,23H-5,26:17,22-di(metheno)dibenzo[k,q]pyrrolo[3,4-n][1,4,7,10,19]dioxatriazacyclohenicosine-23,25(24H)-dione] gave a Cell number ([1]; Conc 0.156 μM) of 0.890, a Cell number ([1]; Conc 0.313 μM) of 0.888 and a Cell number ([1]; Conc 0.625 μM) of 1.106. The Cell number ([1]; Conc 1.25 μM) was 1.124, the Cell number ([1]; Conc 2.5 μM) was 0.592 and the Cell number ([1]; Conc 5 μM) was 0.262. For the same compound, the Cell number ([1]; Conc 10 μM) was 0.096, the Cell number ([2]; 0.156 μM compound) was 0.206 and the Cell number ([2]; 0.313 μM compound) was 0.540. It also gave a Cell number ([2]; 0.625 μM compound) of 0.899, a Cell number ([2]; 1.25 μM compound) of 1.477 and a Cell number ([2]; 2.5 μM compound) of 1.368. The Cell number ([2]; 5 μM compound) was 1.067 and the Cell number ([2]; 10 μM compound) was 0.785.

In the case of Cc1c[nH]c(-c2cnc(NCCNc3ccc(C#N)cn3)nc2-c2ccc(Cl)cc2Cl)n1 [Compound 221, 6-[(2-{[4-(2,4-Dichlorophenyl)-5-(4-methyl-1H-imidazol-2-yl)pyrimidin-2-yl]amino}ethyl)amino]pyridine-3-carbonitrile], the viability at 4 days, 2.5 μM [3] is reported as 112%, the viability at 4 days, 5 μM [3] is reported as 82.3% and the viability at 4 days, 10 μM [3] is reported as 67.5%. It also gave an activity at 0.156 µM ([1]; Conc 0.156 μM) of 108%, an activity at 0.313 µM ([1]; Conc 0.313 μM) of 113% and an activity at 0.625 µM ([1]; Conc 0.625 μM) of 111%. It also gave an activity at 1.25 µM ([1]; Conc 1.25 μM) of 112%, an activity at 2.5 µM ([1]; Conc 2.5 μM) of 89.6% and an activity at 5 µM ([1]; Conc 5 μM) of 88.9%. For the same compound, the activity at 10 µM ([1]; Conc 10 μM) was 19.3%.

In the case of CC(C)(O)CCn1nc(C2=C(c3cn(-c4cccnc4)c4ccccc34)C(=O)NC2=O)c2ccccc21 [Compound 223, 3-[1-(3-Hydroxy-3-methylbutyl)-1H-indazol-3-yl]-4-(1-pyridin-3-yl-1H-indol-3-yl)-1H-pyrrole-2,5-dione], the viability at 4 days, 2.5 μM [3] is reported as 99.6%, the viability at 4 days, 5 μM [3] is reported as 93.9% and the viability at 4 days, 10 μM [3] is reported as 83.7%. The activity at 0.156 µM ([1]; Conc 0.156 μM) was 77.6%, the activity at 0.313 µM ([1]; Conc 0.313 μM) was 102% and the activity at 0.625 µM ([1]; Conc 0.625 μM) was 103%. It also gave an activity at 1.25 µM ([1]; Conc 1.25 μM) of 116%, an activity at 2.5 µM ([1]; Conc 2.5 μM) of 132% and an activity at 5 µM ([1]; Conc 5 μM) of 135%. For the same compound, the activity at 10 µM ([1]; Conc 10 μM) was 128%.

Work on O=C1NC(=O)C(c2nn(CCO)c3ccccc23)=C1c1cn(-c2cncnc2)c2ccccc12 [Compound 226, 3-[1-(2-Hydroxyethyl)-1H-indazol-3-yl]-4-(1-pyrimidin-5-yl-1H-indol-3-yl)-1H-pyrrole-2,5-dione] yielded a viability at 4 days, 2.5 μM [3] of 86.3%, a viability at 4 days, 5 μM [3] of 86.7% and a viability at 4 days, 10 μM [3] of 78.9%. The activity at 0.156 µM ([1]; Conc 0.156 μM) was 77.4%, the activity at 0.313 µM ([1]; Conc 0.313 μM) was 78.5% and the activity at 0.625 µM ([1]; Conc 0.625 μM) was 80.5%. For the same compound, the activity at 1.25 µM ([1]; Conc 1.25 μM) was 73.9%, the activity at 2.5 µM ([1]; Conc 2.5 μM) was 64% and the activity at 5 µM ([1]; Conc 5 μM) was 45.8%. The activity at 10 µM ([1]; Conc 10 μM) was 29%.

O=C1NC(=O)C2=C1Nc1cccc(c1)OCCC/C=C\CCCOc1cccc2c1 [Compound 233, (11Z)-8,9,10,13,14,15-Hexahydro-2,6:17,21-di(metheno)pyrrolo[3,4-h][1,15,7]dioxazacyclotricosine-22,24(1H,23H)-dione] gave a viability at 4 days, 2.5 μM [3] of 41.6%, a viability at 4 days, 5 μM [3] of 0% and a viability at 4 days, 10 μM [3] of 1.5%. For the same compound, the activity at 0.156 µM ([1]; Conc 0.156 μM) was 83.2%, the activity at 0.313 µM ([1]; Conc 0.313 μM) was 79.1% and the activity at 0.625 µM ([1]; Conc 0.625 μM) was 73.6%. The activity at 1.25 µM ([1]; Conc 1.25 μM) was 63.6%, the activity at 2.5 µM ([1]; Conc 2.5 μM) was 43.8% and the activity at 5 µM ([1]; Conc 5 μM) was 8.9%. It also gave an activity at 10 µM ([1]; Conc 10 μM) of 0%.
